{
  "source": "patent US20220400669A1",
  "about": "“COMPOUNDS AND METHODS FOR PROMOTING PLANT GROWTH” (King Abdullah University of Science and Technology, priority 2019, published 2022)",
  "key": {"Striga hermonthica seeds": {"test_system": "Striga hermonthica seeds", "experiment": "Striga hermonthica seed germination bioassay with root exudates of treated rice seedlings", "assay_type": "in vivo", "experimental": "For SL analysis, one-week-old seedlings were transferred into 50 ml falcon tubes (two seedlings per tube), containing half-strength Hoagland nutrient solution with K2HPO4.2H2O (+Pi), and grown in the biochamber for one week. Rice seedlings were then subjected to phosphate deficiency (−Pi) for another one week. On the day of root exudates collection, rice seedlings were first treated with 5 μM Zaxinone, or MZ compounds for 6 h, and then root exudates and root tissues were collected from each tube for LC-MS/MS analysis and Striga bioassays. Striga hermonthica seed germination bioassays were conducted by following the procedure as described previously. About 50-100 sterilized Striga seeds were spread on a glass fiber filter paper disc. Then 12 discs with Striga seeds were put on a sterilized filter paper, moistened with 3 ml sterilized water in a 90 mm petri plate. The plates were sealed with parafilm and cover with aluminum foil. All the plates were kept at 30° C. for 10 days for pre-conditioning. On 11th day, six dry discs with pre-conditioned seeds were selected and put in a 90 mm petri-dish. A filter paper ring moistened with 0.9 ml sterile MilliQ water was placed in the plate. The root exudates collected from Zaxinone or MZ compounds treated rice seedlings was applied at 50 μl on each six disc. Sterile MilliQ water and standard SL analog GR24 (2.5 μM) were included as a negative and positive control, respectively. After application, Striga seeds were incubated in dark at 30° C. for 24 hours. Germination (seeds with radicle emerging through seed coat) was scored under a binocular microscope, and germination rate (%) was calculated."}, "[1]": {"test_system": "SL biosynthesis genes D27, CCD7, CCD8, CO", "experiment": "qRT-PCR transcript analysis of SL biosynthesis genes in rice roots", "assay_type": "in vivo", "details": "5 μM", "experimental": "For transcript analysis, one-week-old seedlings were grown hydroponically in half-strength modified Hoagland nutrient solution with K2HPO4.2H2O (+Pi) and without K2HPO4.2H2O (+Pi) (−Pi) for 7 days. Seedlings were further treated with zaxinone or MZ compounds for 6 h, and tissues were collected.\nRoots of rice seedling were ground and homogenized in liquid nitrogen, and total RNA was isolated using a Direct-zol RNA Miniprep Plus Kit following the manufacturer's instructions (ZYMO RESEARCH; USA). cDNA was synthesized from 1 μg of total RNA using iScript cDNA Synthesis Kit (BIO-RAD Laboratories, Inc, 2000 Alfred Nobel Drive, Hercules, Calif.; USA) according to the instructions in the user manual. The gene expression level was detected by real-time quantitative RT-PCR (qRT-PCR) which was performed using SYBR Green Master Mix (Applied Biosystems; www.lifetechnologies.com) in a CFX384 Touch™ Real-Time PCR Detection System (BIO-RAD Laboratories, Inc, 2000 Alfred Nobel Drive, Hercules, Calif.; USA). The gene expression level was calculated by normalization of a housekeeping gene in rice, Ubiquitin (OsUBQ) (Table 1). The relative gene expression level was calculated according to 2-^ΔΔCT method."}, "[2]": {"experiment": "Chemical stability in aqueous solution by HPLC", "assay_type": "physicochemical", "details": "14-day HPLC analysis, room temperature (21±1° C.), pH 5.0-6.0 aqueous solution; compared with MZ5", "experimental": "MZ3, and MZ5 were tested for their chemical stability at 21±1° C. with pH 5.0-6.0 aqueous solution following the protocol described recently. 50 μl of each compound solutions (1 mg ml-1) was prepared with 175 μl ethanol and 750 μl Mili-Q water. Thereafter, 25 μl Indanol (1 mg ml-1, internal standard) was spiked in 975 μl previous prepared solution. The degradation was monitored at a time course by UPLC analysis using an Agilent HPLC ZORBAX Eclipse XDB-C18 column (3.5 μm, 4.6×150 mm), eluted first by 5% acetonitrile in water for 0.5 min then by a gradient flow from 5% to 100% acetonitrile within 18 min, and by 100% acetonitrile for 5 min. The column was operated at 40° C. at 0.35 ml min^−1 flow rate. Compounds eluted from the column were detected with a photodiode array detector, and the relative quantity of non-degraded amount was calculated by integration comparison with Indanol.\nZaxinone was tested under the same conditions for comparison. Synthetic zaxinone was purchased (customized synthesis) from Buchem B.V. (Apeldoorn, The Netherlands)."}, "wild-type rice plants": {"test_system": "wild-type rice plants", "experiment": "Rice phenotypes in soil (rhizotron system)", "assay_type": "in vivo", "details": "5 μM", "experimental": "For testing MZ3 and MZ5 on rice phenotypes in the rhizotron system (48 cm×24 cm×5 cm), three-day-old seedlings were grown in soil with half-strength modified Hoagland nutrient solution containing 0.4 mM K2HPO4.2H2O (+Pi) and 5 μM zaxinone for two weeks. The solution was changed every other day, adding the chemical at each renewal. To increase the compounds stability, 1 μl/ml emulsifier (cyclohexanone+Atlas […] kindly provided by a person […] of CRODA, Gouda; The Netherlands) was added into Hoagland nutrient solution. Root surface area was analyzed with the ImageJ software."}, "Striga hermonthica": {"test_system": "Striga hermonthica", "experiment": "Striga hermonthica infection of rice in pots", "assay_type": "in vivo", "details": "5 μM, rice cv IAC-165 in pots with Striga infested soil (FIG. 13)", "experimental": "Pots experiment was conducted and slightly adapted from the protocol as described previously About 20 mg (ca 8000) Striga seeds were thoroughly mixed in 1.5 L sand and soil mixture (1:1) and added in 3 L perforated plastic pot containing 0.5 L clean soil in the bottom. The pots were kept in greenhouse-controlled conditions at 35° C. under moisture to preconditioned Striga seeds for 10 days. On 11th day, one week old five rice seedlings (cv IAC165) were planted in each pot. After three days of rice planting, each pot was first irrigated with 250 ml phosphorus deficient Hoaglands nutrient solution and after four hours of irrigation 25 ml formulated MZ3, MZ5 and Zaxinone (100 μM) were sprayed. Next day, each pot was again supplied with 250 ml nutrient solution to make the final concentration of each compound to 5 μM and to move the compound to rice seedlings. Pots with and without Striga seeds were kept as the negative and positive control. Each compound was applied twice in a week up to four weeks. The rice plants were grown under normal growth condition (30° C., 70% RH) for eight weeks. The number of emerged Striga plants in each pot were counted."}, "[3]": {"test_system": "Gigaspora margarita spores", "experiment": "Gigaspora margarita spores germination", "assay_type": "in vivo", "details": "5 μM and 50 nM, 3 and 7 days", "experimental": "Spores were sterilized in a solution of Streptomycine sulphate (0.03% W/V) and Chloramine T (3% W/V) and germinated in 200 μl of MZ3 and MZ5 at 5 μM or 50 nM, GR24 10 nM or a solution of Water/Acetone (12.5 μl acetone in 25 ml water). For each treatments 96 sterilized spores were placed individually in the wells of a multi-well plate and treated with freshly prepared solutions at the beginning of the experiment and after 3 days. Spores were germinated in the dark at 30° C. and the germination rate was evaluated after 3 days and 7 days."}, "[4]": {"experiment": "LC-MS analysis of rice plants fed with the mimics", "assay_type": "in vivo", "details": "data not shown"}},
  "note": "“Also recorded” adds a separate entry of the source.",
  "data": [
    {"smiles": "COc1ccc(Oc2cccc(/C=C/C(C)=O)c2)cc1", "note": "[MZ3, (E)-4-(3-(4-methoxyphenoxy)phenyl)but-3-en-2-one]", "values": [
      {"measurement": "lowering of Striga seed germinating activity of collected exudates", "setting": "Striga hermonthica seeds; exudates of Pi-starved WT rice seedlings exposed to 5 μM for 6 hours (FIG. 10)", "value": "around 40%"},
      {"measurement": "decrease of Striga seed germination rate", "setting": "Striga hermonthica seeds; exudates of rice seedlings treated with 5 μM compound, Pi starvation (FIG. 2)", "value": "~45", "unit": "%"},
      {"measurement": "CCD7 and CO transcript level compared with Zaxinone", "setting": "[1]; wild-type rice roots, Pi starvation, 6 h (FIGS. 12A-12D)", "value": "significantly lower"},
      {"measurement": "transcript levels of SL biosynthesis enzymes D27, CCD7, CCD8 and CO", "setting": "[1]; wild-type rice seedlings, Pi-starvation, 6 h", "value": "strongest inhibition; also recorded: pronounced decrease"},
      {"measurement": "stability (relative amount of non-degraded compound)", "setting": "[2]", "value": "much more stable"},
      {"measurement": "root surface area and root numbers of WT plants compared with zaxinone treatment", "setting": "wild-type rice plants", "value": "increased more"},
      {"measurement": "reduction of the number of emerging Striga plants compared to the untreated control", "setting": "Striga hermonthica", "value": 71, "unit": "%"},
      {"measurement": "spore germination rate", "setting": "[3]", "value": "no effect"},
      {"measurement": "presence in shoots of rice plants fed through roots", "setting": "[4]", "value": "detected"}
    ]}
  ]
}
